According to patent US10626144B2, “Peptide derivatives and uses thereof” (Nosopharm, priority 2014, dated 2020):
Read-outs that look alike come from different tables or passages of the source. Numbered stars: 1 amine (or outer) side, 2 acyl side, 3 side chain; on linkers, the order of the positions; unused ones are H or OH. Square brackets hold non-standard residues; d marks the D form. Peptide text beside a SMILES is read from it. * marks the point of attachment. X3 = NC[C@H](OC(=O)C(F)(F)F)[C@H](N[*:1])C(=O)[*:2]; Phe(3-CONH2) = NC(=O)c1cccc(C[C@H](N)C(=O)O)c1; Phe(4-I) = N[C@@H](Cc1ccc(I)cc1)C(=O)O; Dab(3S-OH) = NC[C@H](O)[C@H](N)C(=O)O; His(π-Me) = Cn1cncc1C[C@H](N)C(=O)O; ΔZArg = N=C(N)NCC/C=C(\N)C(=O)O; aThr = C[C@H](O)[C@H](N)C(=O)O; dOrn = NCCC[C@@H](N)C(=O)O; NH(CH2)4NH2 = NCCCCN*

Columns and labels:
[1] = tested on: Pseudomonas aeruginosa ATCC 27853; experiment: MIC, broth microdilution (CLSI), reference strain; settings: CAMHB
Ec #4 (GUE) = experiment: MIC / resistance profile, multidrug-resistant strain; settings: multidrug-resistant E. coli GUE
[2] = tested on: Escherichia coli ATCC 25922; experiment: MIC, broth microdilution (CLSI), reference strain; settings: CAMHB
[3] = tested on: Acinetobacter baumannii ATCC 19606; experiment: MIC, broth microdilution (CLSI), reference strain; settings: CAMHB
Ec #3 (EGB957) = experiment: MIC / resistance profile, multidrug-resistant strain; settings: multidrug-resistant E. coli EGB957
Ec #5 (DSM22315) = experiment: as above; settings: multidrug-resistant E. coli DSM22315
Ec #2 (MIN) = experiment: as above; settings: multidrug-resistant E. coli MIN
Ec #1 (NCTC13476) = experiment: as above; settings: multidrug-resistant E. coli NCTC13476
[4] = tested on: Staphylococcus aureus ATCC 13709; experiment: MIC, broth microdilution (CLSI), reference strain; settings: CAMHB
[5] = target: N-type calcium channels (Cav2.2) (Rattus norvegicus (Rat), UniProt Q02294); experiment: biochemical; assay type: binding
[6] = class symbol, rat cerebral cortex, [125I]ω-conotoxin GVIA 0.001 nM, 30 minutes at room temperature, read-out: IC50 Cav2.2

| Compound | Pa: MIC Pseudomonas aeruginosa ATCC 27853 [1] | MIC Ec#4 (Ec #4 (GUE)) | Ec: MIC Escherichia coli ATCC 25922 [2] | Ab: MIC Acinetobacter baumannii ATCC 19606 [3] | MIC Ec#3 (Ec #3 (EGB957)) | MIC Ec#5 (Ec #5 (DSM22315)) | MIC Ec#2 (Ec #2 (MIN)) | MIC Ec#1 (Ec #1 (NCTC13476)) | Sa: MIC Staphylococcus aureus ATCC 13709 [4] | IC50 [5] | IC50 ([5]; value in brackets, rat cerebral cortex, [125I]ω-conotoxin GVIA 0.001 nM, read-out: IC50 Cav2.2) | IC50 [5, 6] |
| --- | --- | --- | --- | --- | --- | --- | --- | --- | --- | --- | --- | --- |
| C[C@H](NC(=O)[C@@H](NC(=O)[C@@H](N)CCCCN)[C@@H](O)CN)C(=O)NCC(=O)N[C@H](CCCN)C(=O)N1CCC[C@H]1C(=O)N[C@@H](Cc1cccc(C(N)=O)c1)C(=O)N[C@@H](CCCCN)C(=O)N/C(=C\CCNC(=N)N)C(=O)O [24.90] (H-K[Dab(3S-OH)]AG[dOrn]P[Phe(3-CONH2)]K[ΔZArg]-OH) | − (>32 μg/mL) | ++ (≤8 μg/mL) | ++ (≤8 μg/mL) | − (>32 μg/mL) | ++ (≤8 μg/mL) | ++ (≤8 μg/mL) | ++ (≤8 μg/mL) | ++ (≤8 μg/mL) | ++ (≤8 μg/mL) | – | – | – |
| C[C@H](O)[C@H](NC(=O)[C@@H](NC(=O)[C@@H](N)CCCCN)[C@@H](O)CN)C(=O)NCC(=O)N[C@H](CCCN)C(=O)N1CCC[C@H]1C(=O)N[C@@H](Cc1cnc[nH]1)C(=O)N[C@@H](CCCCN)C(=O)N/C(=C\CCNC(=N)N)C(=O)N[C@@H](CCCCN)C(=O)NCCCCN [25.1] (H-K[Dab(3S-OH)][aThr]G[dOrn]PHK[ΔZArg]K-{NH(CH2)4NH2}) | + (≤32 μg/mL) | – | ++ (≤8 μg/mL) | − (>32 μg/mL) | – | – | – | – | ++ (≤8 μg/mL) | < 30 nM | 3 nM | – |
| C[C@H](NC(=O)[C@@H](NC(=O)[C@@H](N)CCCCN)[C@@H](O)CN)C(=O)NCC(=O)N[C@H](CCCN)C(=O)N1CCC[C@H]1C(=O)N[C@@H](Cc1cncn1C)C(=O)N[C@@H](CCCCN)C(=O)N/C(=C\CCNC(=N)N)C(=O)N[C@@H](CCCCN)C(=O)NCCCCN [24.14] (H-K[Dab(3S-OH)]AG[dOrn]P[His(π-Me)]K[ΔZArg]K-{NH(CH2)4NH2}) | + (≤32 μg/mL) | – | ++ (≤8 μg/mL) | − (>32 μg/mL) | – | – | – | – | ++ (≤8 μg/mL) | – | – | < 30 nM |
| C[C@H](NC(=O)[C@@H](NC(=O)[C@@H](N)CCCCN)[C@@H](O)CN)C(=O)NCC(=O)N[C@H](CCCN)C(=O)N1CCC[C@H]1C(=O)N[C@@H](Cc1ccc(I)cc1)C(=O)N[C@@H](CCCCN)C(=O)N/C(=C\CCNC(=N)N)C(=O)O [24.103] (H-K[Dab(3S-OH)]AG[dOrn]P[Phe(4-I)]K[ΔZArg]-OH) | − (>32 μg/mL) | – | ++ (≤8 μg/mL) | − (>32 μg/mL) | – | – | – | – | ++ (≤8 μg/mL) | – | – | > 300 nM |
| C[C@H](NC(=O)[C@H](CCCCN)NC(=O)[C@H](Cc1cnc[nH]1)NC(=O)[C@@H]1CCCN1C(=O)[C@@H](CCCN)NC(=O)CNC(=O)[C@@H](NC(=O)[C@@H](NC(=O)[C@@H](N)CCCCN)[C@@H](O)CN)[C@@H](O)CN)C(=O)N[C@@H](CCCCN)C(=O)NCCCCN [22.23] (H-K[Dab(3S-OH)][Dab(3S-OH)]G[dOrn]PHKAK-{NH(CH2)4NH2}) | − (>32 μg/mL) | – | − (>32 μg/mL) | − (>32 μg/mL) | – | – | – | – | ++ (≤8 μg/mL) | – | – | < 30 nM |
| N=C(N)NCC/C=C(\NC(=O)[C@H](CCCCN)NC(=O)[C@H](Cc1cnc[nH]1)NC(=O)[C@@H]1CCCN1C(=O)[C@@H](CCCN)NC(=O)CNC(=O)[C@@H](NC(=O)[C@@H](NC(=O)[C@@H](N)CCCCN)[C@@H](O)CN)[C@H](CN)OC(=O)C(F)(F)F)C(=O)N[C@@H](CCCCN)C(=O)NCCCCN [224.1] (H-K[Dab(3S-OH)][X3]G[dOrn]PHK[ΔZArg]K-{NH(CH2)4NH2}) | + (≤32 μg/mL) | – | ++ (≤8 μg/mL) | − (>32 μg/mL) | – | – | – | – | ++ (≤8 μg/mL) | – | – | < 30 nM |
| C[C@H](NC(=O)[C@@H](NC(=O)[C@@H](N)CCCCN)[C@@H](O)CN)C(=O)NCC(=O)N[C@H](CCCN)C(=O)N1CCC[C@H]1C(=O)N[C@@H](Cc1ccc(O)cc1)C(=O)N[C@@H](CCCCN)C(=O)N/C(=C\CCNC(=N)N)C(=O)N[C@@H](CCCCN)C(=O)NCCCCN [24.20] (H-K[Dab(3S-OH)]AG[dOrn]PYK[ΔZArg]K-{NH(CH2)4NH2}) | − (>32 μg/mL) | – | ++ (≤8 μg/mL) | − (>32 μg/mL) | – | – | – | – | ++ (≤8 μg/mL) | – | – | < 30 nM |
